How the values were obtained:
Format in all cases: biochemical
[1] = biological target: CDK6/CycD3 (Homo sapiens (Human), UniProt Q00534); experiment: CDK6 kinase assay (Mobility Shift Assay); settings: 28° C.
Protocol: (§1) • Method 1: In vitro enzymatic activity of the CDK isoforms CDK2/CycA2, CDK4/CycD3 and CDK6/cycD3 were measured using Mobility Shift Assay that monitors phosphorylation ratio of FAM labelled peptide (Peptide 18 for CDK2/CycA2, Peptide 8 for CDK4/CycD3). CDK2/CycA2 and CDK6/CycD3 were assayed under buffer conditions in the presence of 50 mM HEPES (pH 7.5), 10 mM MgCl2, 0.0015% Brij-35 and 2 mM dithiothreitol; CDK4/CycD3 with buffer condition of 20 mM HEPES (pH 7.5), 10 mM MgCl2, 0.01% Triton X-100 and 2 mM dithiothreitol. Prepare compounds to 50× of the final desired highest inhibitor concentration by 100% DMSO and serial dilution in 3-fold for total of 10 concentrations. For each isoform, dosage of enzyme and substrate are CDK2/CycA2 12 nM, ATP Km 39 μM; CDK4/CycD3 10 nM, ATP Km 221 μM; CDK6/cycD3 15 nM, ATP Km 800 μM. After assay for 60 min, 180 min, 60 min respectively at 28° C., reactions were terminated with stop solution (50 mM EDTA, 0.015% Brij-35, 0.2% Coating Reagent #3 and 100 mM HEPES (pH 7.5)). Collect conversion on Caliper EZ Reader. IC50 values were calculated by fitting the dose-response curves with Xlfit excel add-in version 4.3.1. • Method 2: In vitro enzymatic activity of the CDK isoforms CDK2/CycA2, CDK4/CycD3 and CDK6/CycD3 were measured using Mobility Shift Assay that monitors phosphorylation ratio of FAM labelled peptide (Peptide 18 for CDK2/CycA2, Peptide 8 for CDK4/CycD3 and CDK6/CycD3). CDK2/CycA2, CDK4/CycD3 and CDK6/cycD3 were assayed under buffer conditions in the presence of 50 mM HEPES (pH 7.5), 10 mM MgCl2, 0.0015% Brij-35 and 2 mM dithiothreitol. Prepare compounds to 100× of the final desired highest inhibitor concentration by 100% DMSO and serial dilution in 3-fold for total of 10 concentrations, each concentration contains 1% DMSO. […] After assay for 30 min, 150 min, 150 min respectively at 28° C., reactions were terminated with stop solution (50 mM EDTA, 0.015% Brij-35, 0.2% Coating Reagent #3 and 100 mM HEPES (pH 7.5)). Collect conversion on Caliper EZ Reader. IC50 values were calculated by fitting the dose-response curves with GraphPad Prism V5.0.

[2] = biological target: recombinant, full-length HDAC-1 (Homo sapiens (Human), UniProt Q13547); experiment: HDAC-1 assay (fluorogenic Ac-peptide-AMC)
Protocol: (§2) 2. HDAC-1 and HDAC-6 Assays: • Method 1: The inhibitory effect of compounds on HDAC-1 and HDAC-6 function was determined in vitro using an optimized homogenous assay performed in 384-well plate format. In this assay, recombinant, full-length HDAC-1 or HDAC-6 protein (BPS Biosciences) was incubated with Ac-peptide-AMC with concentration in Km plot. Reactions were performed in Tris-based assay buffer and followed for fluorogenic release of 7-amino-4-methylcoumarin from substrate upon deacetylase and trypsin enzymatic activity. Fluorescence measurements were obtained using a multilabel plate reader (Synergy MX with excitation at 355 nm and emission at 460 nm.). Data were analyzed on a plate-by-plate basis for the linear range of fluorescence over time. Fit the data in GraphPad Prism V5.0 software to obtain ICso values using equation (Y=Bottom+(Top−Bottom)/(1+10^((Log IC50−X)*Hill Slope), Y is % inhibition and X is compound concentration).
as §2, with “The testing results of the representative compounds are listed in Table 1 below. •” for “2. HDAC-1 and HDAC-6 Assays: •”, “Method 2:” for “Method 1:”, “HDAC-1 (Active Motif) and” for “HDAC-1 or”, “(Synergy” for “(Synergy MX”, “obtain IC50” for “obtain ICso”

[3] = biological target: recombinant, full-length HDAC-6 (Homo sapiens (Human), UniProt Q9UBN7); experiment: HDAC-6 assay (fluorogenic Ac-peptide-AMC)
Protocol: as §2
as §2, with “The testing results of the representative compounds are listed in Table 1 below. •” for “2. HDAC-1 and HDAC-6 Assays: •”, “Method 2:” for “Method 1:”, “HDAC-1 (Active Motif) and” for “HDAC-1 or”, “(Synergy” for “(Synergy MX”, “obtain IC50” for “obtain ICso”

[4] = biological target: CDK2/CycA2 (Homo sapiens (Human), UniProt P24941); experiment: CDK2 kinase assay (Mobility Shift Assay); settings: 28° C.
Protocol: as §1

[5] = biological target: CDK4/CycD3 (Homo sapiens (Human), UniProt P11802); experiment: CDK4 kinase assay (Mobility Shift Assay); settings: 28° C.
Protocol: as §1

[6] = method 1: CDK6/cycD3 15 nM, ATP Km 800 μM, 60 min
[7] = method 1: HDAC-1 protein (BPS Biosciences)
[8] = method 1: HDAC-6 protein (BPS Biosciences)
[9] = method 1: CDK2/CycA2 12 nM, ATP Km 39 μM, 60 min
[10] = method 1: CDK4/CycD3 10 nM, ATP Km 221 μM, 180 min
[11] = method 2: CDK6/cycD3 5 nM, ATP Km 550 μM, 150 min
[12] = method 2: HDAC-1 (Active Motif)
[13] = method 2: HDAC-6 protein (BPS Biosciences)
[14] = method 2: CDK2/CycA2 2.5 nM, ATP Km 17 μM, 30 min
[15] = method 2: CDK4/CycD3 10 nM, ATP Km 250 μM, 150 min

Chain of recombinant, full-length HDAC-1 (Q13547 whole entry): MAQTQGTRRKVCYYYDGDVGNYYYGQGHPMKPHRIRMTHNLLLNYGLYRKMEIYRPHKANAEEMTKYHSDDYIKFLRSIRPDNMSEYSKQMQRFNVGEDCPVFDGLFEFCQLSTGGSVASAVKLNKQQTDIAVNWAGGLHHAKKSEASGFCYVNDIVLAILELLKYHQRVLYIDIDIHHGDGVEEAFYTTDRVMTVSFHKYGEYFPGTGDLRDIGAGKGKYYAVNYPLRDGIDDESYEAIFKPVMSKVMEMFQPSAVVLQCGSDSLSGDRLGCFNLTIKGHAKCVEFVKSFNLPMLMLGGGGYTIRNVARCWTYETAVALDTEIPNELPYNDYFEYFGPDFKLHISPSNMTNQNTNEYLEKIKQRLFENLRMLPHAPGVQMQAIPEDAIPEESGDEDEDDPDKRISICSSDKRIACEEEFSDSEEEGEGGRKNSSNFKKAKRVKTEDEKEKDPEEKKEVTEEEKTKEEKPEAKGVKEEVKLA
Chain of CDK4/CycD3 (P11802 whole entry, species assumed): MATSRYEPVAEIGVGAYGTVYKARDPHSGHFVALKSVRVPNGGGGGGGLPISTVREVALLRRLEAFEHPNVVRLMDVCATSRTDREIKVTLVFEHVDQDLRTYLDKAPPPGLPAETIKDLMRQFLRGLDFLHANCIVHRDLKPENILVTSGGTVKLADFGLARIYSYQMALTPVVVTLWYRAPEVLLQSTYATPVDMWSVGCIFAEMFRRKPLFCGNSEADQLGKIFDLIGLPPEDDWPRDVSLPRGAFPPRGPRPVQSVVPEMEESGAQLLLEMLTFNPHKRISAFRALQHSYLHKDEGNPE
Chain of CDK4/CycD3 (P30281 whole entry partner, species assumed): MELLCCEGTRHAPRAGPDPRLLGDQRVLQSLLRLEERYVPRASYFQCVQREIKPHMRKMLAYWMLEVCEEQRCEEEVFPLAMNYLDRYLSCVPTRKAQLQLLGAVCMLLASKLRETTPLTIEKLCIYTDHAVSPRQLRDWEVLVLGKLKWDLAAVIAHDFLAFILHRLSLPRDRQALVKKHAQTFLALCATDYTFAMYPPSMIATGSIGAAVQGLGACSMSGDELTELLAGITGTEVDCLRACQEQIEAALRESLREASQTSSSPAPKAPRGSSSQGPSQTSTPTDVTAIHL
Chain of recombinant, full-length HDAC-6 (Q9UBN7 whole entry): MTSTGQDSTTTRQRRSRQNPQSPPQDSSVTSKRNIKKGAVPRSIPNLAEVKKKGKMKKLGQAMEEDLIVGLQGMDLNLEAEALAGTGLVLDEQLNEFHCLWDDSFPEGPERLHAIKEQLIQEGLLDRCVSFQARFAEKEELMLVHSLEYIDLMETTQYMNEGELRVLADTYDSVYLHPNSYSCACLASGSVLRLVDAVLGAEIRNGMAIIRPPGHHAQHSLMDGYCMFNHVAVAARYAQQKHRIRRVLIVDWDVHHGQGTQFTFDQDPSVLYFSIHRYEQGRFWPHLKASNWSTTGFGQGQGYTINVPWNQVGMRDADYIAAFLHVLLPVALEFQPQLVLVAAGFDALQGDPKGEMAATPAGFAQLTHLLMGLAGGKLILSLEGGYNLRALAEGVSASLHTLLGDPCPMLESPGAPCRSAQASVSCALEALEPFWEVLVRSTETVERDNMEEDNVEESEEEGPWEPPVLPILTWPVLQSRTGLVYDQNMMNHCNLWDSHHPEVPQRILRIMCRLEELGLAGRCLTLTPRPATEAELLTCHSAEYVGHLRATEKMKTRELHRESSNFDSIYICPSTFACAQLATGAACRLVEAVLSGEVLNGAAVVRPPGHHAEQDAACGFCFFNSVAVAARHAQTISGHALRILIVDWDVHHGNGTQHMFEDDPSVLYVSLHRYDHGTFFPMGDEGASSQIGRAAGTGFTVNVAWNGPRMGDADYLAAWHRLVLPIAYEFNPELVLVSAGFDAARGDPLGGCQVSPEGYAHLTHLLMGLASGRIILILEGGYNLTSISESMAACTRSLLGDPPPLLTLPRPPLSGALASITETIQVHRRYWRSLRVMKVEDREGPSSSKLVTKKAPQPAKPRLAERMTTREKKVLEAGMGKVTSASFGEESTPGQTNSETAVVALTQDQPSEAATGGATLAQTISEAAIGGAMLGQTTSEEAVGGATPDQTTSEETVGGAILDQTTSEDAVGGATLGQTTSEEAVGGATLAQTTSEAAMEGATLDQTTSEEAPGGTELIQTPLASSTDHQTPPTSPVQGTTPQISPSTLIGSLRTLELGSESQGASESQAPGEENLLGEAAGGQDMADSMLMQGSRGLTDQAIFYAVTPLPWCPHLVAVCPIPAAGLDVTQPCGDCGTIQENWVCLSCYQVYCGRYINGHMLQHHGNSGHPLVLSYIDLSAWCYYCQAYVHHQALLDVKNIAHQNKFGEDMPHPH
Chain of CDK6/CycD3 (Q00534 whole entry, species assumed, canonical isoform): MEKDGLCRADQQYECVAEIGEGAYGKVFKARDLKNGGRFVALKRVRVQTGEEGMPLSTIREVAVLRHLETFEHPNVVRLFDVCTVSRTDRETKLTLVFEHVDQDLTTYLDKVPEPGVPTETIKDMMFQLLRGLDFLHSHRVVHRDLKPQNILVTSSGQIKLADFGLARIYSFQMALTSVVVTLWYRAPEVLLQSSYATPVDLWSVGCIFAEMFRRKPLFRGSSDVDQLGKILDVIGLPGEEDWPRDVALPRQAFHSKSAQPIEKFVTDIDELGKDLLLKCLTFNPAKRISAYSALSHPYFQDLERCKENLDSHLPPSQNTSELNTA
Chain of CDK6/CycD3 (P30281 whole entry partner, species assumed, canonical isoform): as the sequence (P30281 whole entry partner, species assumed) above

Compound	IC50 [1, 6] [nM]	IC50 [2, 7] [nM]	IC50 [3, 8] [nM]	IC50 [4, 9] [µM]	IC50 [5, 10] [nM]	IC50 [1, 11] [nM]	IC50 [2, 12] [nM]	IC50 [3, 13] [nM]	IC50 [4, 14] [µM]	IC50 [5, 15] [nM]
CC(=O)c1c(C)c2cnc(Nc3ccc(N(C)CCN(C)c4ncc(C(=O)NO)cn4)cn3)nc2n(C2CCCC2)c1=O [Compound 1, 2-((2-((6-((6-acetyl-8-cyclopentyl-5-methyl-7-oxo-7,8-dihydropyrido[2,3-d]pyrimidin-2-yl)amino)pyridin-3-yl) (methyl)amino)ethyl) (methyl)amino)-N-hydroxypyrimidine-5-carboxamide]	25 to 50	5 to 10	10 to 50	> 10	≤ 10					
CC(=O)c1c(C)c2cnc(Nc3ccc(N(C)Cc4ccc(/C=C/C(=O)NO)cc4)cn3)nc2n(C2CCCC2)c1=O [Compound 2, (E)-3-(4-(((6-((6-acetyl-8-cyclopentyl-5-methyl-7-oxo-7,8-dihydropyrido[2,3-d]pyrimidin-2-yl)amino)pyridin-3-yl)(methyl)amino)methyl)phenyl)-N-hydroxyacrylamide]	50 to 100	10 to 50	50 to 75	> 2	10 to 25					
CC(=O)c1c(C)c2cnc(Nc3ccc(N(C)CCN(C)c4ccc(C(=O)NO)cn4)cn3)nc2n(C2CCCC2)c1=O [Compound 3, 6-((2-((6-((6-acetyl-8-cyclopentyl-5-methyl-7-oxo-7,8-dihydropyrido[2,3-d]pyrimidin-2-yl)amino)pyridin-3-yl)(methyl)amino)ethyl)(methyl)amino)-N-hydroxynicotinamide]						25 to 50	50 to 75	75 to 100	> 2	10 to 25
CC(=O)c1c(C)c2cnc(Nc3ccc(N(C)CCN(C)c4ccc(C(=O)NO)nc4)cn3)nc2n(C2CCCC2)c1=O [Compound 4, 5-((2-((6-((6-acetyl-8-cyclopentyl-5-methyl-7-oxo-7,8-dihydropyrido[2,3-d]pyrimidin-2-yl)amino)pyridin-3-yl)(methyl)amino)ethyl)(methyl)amino)-N-hydroxypicolinamide]						25 to 50			> 5	≤ 10
CC(=O)c1c(C)c2cnc(Nc3ccc(OCCN(C)c4ccc(C(=O)NO)cn4)cn3)nc2n(C2CCCC2)c1=O [Compound 5, 6-((2-((6-((6-acetyl-8-cyclopentyl-5-methyl-7-oxo-7,8-dihydropyrido[2,3-d]pyrimidin-2-yl)amino)pyridin-3-yl)oxy)ethyl)(methyl)amino)-N-hydroxynicotinamide]						25 to 50	≤ 5	5 to 10	> 2	≤ 10
CC(=O)c1c(C)c2cnc(Nc3ccc(N4CCC(C(=O)NO)CC4)cn3)nc2n(C2CCCC2)c1=O [Compound 7, 1-(6-((6-acetyl-8-cyclopentyl-5-methyl-7-oxo-7,8-dihydropyrido[2,3-d]pyrimidin-2-yl)amino)pyridin-3-yl)-N-hydroxypiperidine-4-carboxamide]						25 to 50			> 2	≤ 10
CC(=O)c1c(C)c2cnc(Nc3ccc(N(C)CCN(C)c4ccc(C(=O)NO)cc4)cn3)nc2n(C2CCCC2)c1=O [Compound 8, 4-((2-((6-((6-acetyl-8-cyclopentyl-5-methyl-7-oxo-7,8-dihydropyrido[2,3-d]pyrimidin-2-yl)amino)pyridin-3-yl) (methyl)amino)ethyl) (methyl)amino)-N-hydroxybenzamide]						25 to 50			> 5	≤ 10
CC(=O)c1c(C)c2cnc(Nc3ccc(N(C)CCCCCCC(=O)NO)cn3)nc2n(C2CCCC2)c1=O [Compound 9, 7-((6-((6-acetyl-8-cyclopentyl-5-methyl-7-oxo-7,8-dihydropyrido[2,3-d]pyrimidin-2-yl)amino)pyridin-3-yl)(methyl)amino)-N-hydroxyheptanamide]						25 to 50	5 to 10	10 to 50	> 5	10 to 25
CC(=O)c1c(C)c2cnc(Nc3ccc(OCCN(C)c4ncc(C(=O)NO)cn4)cn3)nc2n(C2CCCC2)c1=O [Compound 10, 2-((2-((6-((6-acetyl-8-cyclopentyl-5-methyl-7-oxo-7,8-dihydropyrido[2,3-d]pyrimidin-2-yl)amino)pyridin-3-yl)oxy)ethyl)(methyl)amino)-N-hydroxypyrimidine-5-carboxamide]						25 to 50	≤ 5	10 to 50	> 10	10 to 25

Reference: patent US12358911B2, “Heterocyclic comipound as CDK-HDAC dual pathway inhibitor” (Hangzhou Innogate Pharma Co., Ltd., priority 2018, dated 2025)
